Test system: CIA-induced rheumatoid arthritis model
Test: CIA-induced rheumatoid arthritis model
Format: in vivo, DBA/1J mice
Conditions: QD, Model 12.31 ± 2.97, Mean ± SD, n = 7
Protocol: 1. DBA/1J mice, male, SPF grade, were pre-acclimatized in the animal facility for one week. 2. On day 1, for the primary immunization, 2 mg/mL bovine type II collagen was mixed thoroughly with an equal volume of complete Freund's adjuvant on ice using a homogenizer until fully emulsified. 100 μL of the collagen emulsion (final concentration 1 mg/mL) was intradermally injected at 2 cm from the base of the mouse tail. Medical iodophor was used to disinfect the tail after injection to prevent tail necrosis, which was conducted for 3 consecutive days. 3. On day 21, bovine type II collagen solution was thoroughly mixed and emulsified with an equal volume of Freund's incomplete adjuvant, using the same method as the primary immunization. 4. On day 26, LPS was administered intraperitoneally at a dose of 50 μg/animal to induce disease. 5. On day 28, the affected mice were scored according to Table 33 and the diameter of their ankle joints was measured. Mice were randomly grouped and treated with medication based on their scores and ankle diameter.

## CN(C)c1cc2nn([C@H]3CC[C@H](CN4CC[C@@H](n5cc6cc(C7CCC(=O)NC7=O)c(F)cc6n5)[C@@H](F)C4)CC3)cc2cc1NC(=O)c1cnn2cccnc12 (some centres unmarked) [TM-135]
15 mg/kg
  DAI Score d 42: 11.17 ± 2.36
45 mg/kg
  DAI Score d 42: 9.60 ± 3.33
